{"source": "patent EP0785936B1", "about": "“PHOTOCHROMIC NAPHTHOXAZINE COMPOUNDS” (PPG Industries Ohio, Inc., priority 1994, dated 1996)", "test": "Photochromic response of imbibed diethylene glycol bis(allyl carbonate) polymer test squares on an optical bench", "format": "physicochemical", "settings": "for Δ OD @ SATURATION: UV exposure continued for 20 minutes; for BLEACH RATE T 1/2: time for absorbance of activated form to reach one half the highest absorbance at 25.7 ± 0.5 °C after removal of activating light", "description": "Comparative testing was conducted on the principle product of Example 3 and certain photochromic compounds described in U.S. Patents 4,342,668 and 4,637,698. These compounds were imbibed by thermal transfer into test squares of a polymeric matrix prepared from a diethylene glycol bis(allyl carbonate) composition by the following procedure: Each photochromic compound was dissolved in toluene to form a 4 weight percent solution of the compound. A piece of No. 4 Whatman filter paper was saturated with the toluene solution of the photochromic compound and allowed to air dry. The dried filter paper was placed on one side of the polymer test square, which measured 1/8 inch (0.3 centimeter) x 2 inch (5.1 centimeters) x 2 inch (5.1 centimeters). A piece of untreated filter paper was placed on the other side of the polymer test square and the resulting sandwich placed between two plates of flat aluminum metal plates. The entire assembly was then placed in a 155°C. oven for a time sufficient to thermally transfer the photochromic compound into the polymer test square. […] The imbibed test squares were washed with acetone after removal from the oven.\nThe imbibed polymer test squares were tested for photochromic response rates on an optical bench. The samples were illuminated by a 150 watt Xenon lamp fitted with a copper sulfate bath and a neutral density filter at an intensity of about one sun. A second beam of light provided by a filtered tungsten lamp arranged to pass through the sample area exposed by the UV source was used to monitor changes in transmission of the sample over different wavelength ranges in the visible region of the spectrum. The intensity of the monitoring beam after passing through the sample was measured by means of an IL-1500 radiometer equipped with a silicon detector head and matching filters.\nThe Δ OD/min., which represents the sensitivity of the photochromic compound's response to UV light, was measured using photopic filters on the silicon detector. The response of the filtered detector approximated the luminosity curve. The Δ OD was measured over the first five (5) seconds of UV exposure, then expressed on a per minute basis. The saturation optical density (OD) was taken under identical conditions as the Δ OD/min., except UV exposure was continued for 20 minutes. The lambda max reported in Table 2 is the wavelength in the ultraviolet range closest to the visible spectrum or in the threshold range, i.e., 390 to 410 nanometers, of the visible spectrum at which the maximum absorption and activation of the photochromic compound occurs in the polymer matrix test squares.\nThe bleach rate T 1/2(sec.) is the time interval in seconds for the absorbance of the activated form of the photochromic compounds in the test polymer to reach one half the highest absorbance at 25.7 ± 0.5 °C. after removal of the source of activating light."}
{"compound": "CCCN1c2cc(C)c(C)cc2C(C)(C)C12C=Nc1c(ccc3ncccc13)O2", "note": "(centres unmarked) [B, 1-propyl-3,3,5,6-tetramethyl-spiro[indoline-2,3'-[3H]pyrido-[3,2-f][1,4]benzoxazine]]", "values": [{"measurement": "Δ OD @ SATURATION", "result": 0.36}, {"measurement": "BLEACH RATE T 1/2", "result": 69, "unit": "s"}]}
{"compound": "CCCN1c2cc(C)c(C)cc2C(C)(C)C12C=Nc1c(ccc3ccc(OC)cc13)O2", "note": "(centres unmarked) [A, 1-propyl-3,3,5,6-tetramethyl-9'-methoxy-spiro[indoline-2,3'-[3H]naphth[2,1-b][1,4]oxazine]]", "values": [{"measurement": "Δ OD @ SATURATION", "result": 0.11}, {"measurement": "BLEACH RATE T 1/2", "result": 70, "unit": "s"}]}
{"compound": "1-propyl-3,3,4,5(or 3,3,5,6)-tetramethyl-9'-methoxycarbonyl-8'-acetoxy-spiro[indoline-2,3'-[3H]naphth[2,1-b]-[1,4]oxazine]", "values": [{"measurement": "Δ OD @ SATURATION", "result": 0.42}, {"measurement": "BLEACH RATE T 1/2", "result": 136, "unit": "s"}]}
{"compound": "1-propyl-3,3,4,5(or 3,3,5,6)-tetramethyl-spiro[indoline-2,3'-[3H]naphth[2,1-b][1,4]oxazine]", "values": [{"measurement": "Δ OD @ SATURATION", "result": 0.11}, {"measurement": "BLEACH RATE T 1/2", "result": 47, "unit": "s"}]}
